Here are results for two compounds from article PMC12778052 (Science Advances, 2026).

Data set [1] relates to T24 cells. Kind of data set: In vitro binding of [^68Ga]AJ647 to T24 cells. It is filed as cell-based. The settings on record: T24 (low Nectin-4); 1 × 10^6 cells, ~1 μCi, 30 min, 4°C; means ± SD, n = 4. On the procedure:
(§1) In vitro binding of [^68Ga]AJ647 to T24, SCaBER, RT112, UC9, UC14, and HT1376 cells was determined by incubating 1 × 10^6 cells with ~1 μCi of [^68Ga]AJ647 for 30 min at 4°C. After incubation, cells were washed three times with ice-cold PBS containing 0.1% Tween 20 and counted on an automated gamma counter. All cell radioactivity uptake studies were performed in quadruplicate for each cell line and repeated three times.

Data set [2] relates to HT1376 cells. Kind of data set: In vitro binding of [^68Ga]AJ647 to HT1376 cells. It counts as cell-based. The settings on record: 1 × 10^6 cells, ~1 μCi, 30 min, 4°C, means ± SD, n = 4. As to the method: as §1
In a further data set the target is T1, mouse Nectin-4 (Mus musculus, UniProt Q8R007).
T1 construct: purchased R&D Systems 3116-N4-050
T1 sequence (Q8R007 31-347 limits assumed): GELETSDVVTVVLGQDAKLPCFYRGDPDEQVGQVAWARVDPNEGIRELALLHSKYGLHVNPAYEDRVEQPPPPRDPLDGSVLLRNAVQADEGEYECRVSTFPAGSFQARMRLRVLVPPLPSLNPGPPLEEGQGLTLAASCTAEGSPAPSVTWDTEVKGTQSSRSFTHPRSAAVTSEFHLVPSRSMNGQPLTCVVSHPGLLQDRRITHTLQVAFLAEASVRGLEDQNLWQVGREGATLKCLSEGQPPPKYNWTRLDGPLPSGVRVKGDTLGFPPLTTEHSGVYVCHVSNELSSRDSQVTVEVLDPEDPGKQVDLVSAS
Nature of the data set: SPR affinity for recombinant mouse Nectin-4. It counts as binding. The conditions noted are these: mouse Nectin-4. As to the method: The affinity of AJ647 for human and mouse Nectin-4 recombinant proteins was evaluated by SPR. The experiments were conducted using a Biacore T200 instrument with a CM5 chip at 25°C. The ligands used were His-tagged human Nectin-4 (R&D Systems, catalog no. 2659-N4-050, 44 kDa, 0.2 mg/ml stock concentration) and mouse Nectin-4 proteins (R&D Systems, catalog no. 3116-N4-050, 45 kDa, 0.2 mg/ml stock concentration), which were immobilized onto the CM5 chip. AJ647 (3057.5 Da, 10 mM stock concentration) was used as the analyte, which flowed over the ligand-immobilized surface. FC2 and FC4 was used as the experimental flow cell, while FC1 and FC3 served as the reference. An anti-His antibody (1 mg/ml stock concentration) was immobilized on all flow cells using standard amine coupling chemistry. […] Human Nectin-4 was captured onto FC2 at a level of ~600 RU, with a 1:20 dilution and 10 μg/ml diluted concentration in PBS-P. Mouse Nectin-4 was captured onto FC4 at a level of 600 RU, with a 1:20 dilution and 10 μg/ml diluted concentration in PBS-P. The theoretical maximum response (Rmax ) values were calculated on the basis of the captured response values (table S1), assuming a 1:1 interaction mechanism. […] All association and dissociation kinetics were evaluated by 1:1 kinetics model fitting.

A further data set can be described thus: physchem. It counts as physicochemical. The settings on record: pH 7.4. On the procedure:
The logD (pH 7.4) value was determined according to a literature procedure ([32]). Briefly, a 10-μl solution of [^68Ga]AJ647 (around 10 μCi) was added to a solution of 1-octanol (200 μl) mixed with phosphate-buffered saline (PBS) (190 μl) in a 1.5-ml centrifuge tube. After the mixture was vigorously shaken and vortexed, it was centrifuged at 3000 rpm for 5 min. Aliquots (10 μl) were removed from both phases, and the radioactivity was measured on an automated gamma counter (1282 Compugamma CS, Pharmacia/LKB Nuclear Inc., Gaithersburg, MD). The logD was calculated as the average log ratio value of the radioactivity in the 1-octanol fraction and the PBS fraction from the three samples.

The subject of data set [3] is SCaBER cells. Kind of data set: In vitro binding of [^68Ga]AJ647 to SCaBER cells. It counts as cell-based. The conditions noted are these: 1 × 10^6 cells, ~1 μCi, 30 min, 4°C, means ± SD, n = 4. On the procedure:
as §1

The test system of data set [4] is SCaBER cells. Kind of data set: [^68Ga]AJ647 binding after EV preincubation, SCaBER cells. The settings on record: EV 60 nM preincubated 30 min, P < 0.0001. It counts as cell-based. On the procedure:
(§2) An FITC analog of EV was made using the manufacturer’s recommended protocol (Thermo Fisher Scientific, no. 46409). Briefly, 1 mg of EV was incubated with FITC-NHS ester at a 5:1 molar ratio overnight at 4°C at 0.1 M borate buffer (pH 8.0). Excess unbound FITC-NHS ester was washed off by performing buffer exchange with 1× PBS using three rounds of ultracentrifugation at 4000g for 10 min (3-kDa molecular weight cutoff filter, Amicon, no. UFC900308). The effect of nonradioactive AJ647 on EV binding to Nectin-4 was assessed by incubating HT1376 cells at varying concentrations (5.4 μM to 0.01 nM using a serial dilution) of AJ647 for 30 min at 4°C. Unbound AJ647 was washed off using 3 ml of cold PBS. Cells were incubated with EV-FITC for 30 min at 4°C. Excess EV-FITC was washed off using 3 ml of cold PBS. The mean fluorescence intensity was measured using a flow cytometer, and data are reported as the percentage of 0 nM AJ647. For the effect of EV on [^68Ga]AJ647 binding, EV was used at concentrations of 90 to 0.04 nM using serial dilutions for 30 min at 4°C. Unbound EV was washed off using cold PBS. Then, cells were incubated with 1 μCi of [^68Ga]AJ647 for an additional 30 min. Excess [^68Ga]AJ647 was washed off three times with cold PBS. Samples were read in an automated gamma counter, and data are reported as the percentage of 1-μCi standard counts.

Data set [5] relates to HT1376 cells. Kind of data set: [^68Ga]AJ647 binding after EV preincubation, HT1376 cells. It counts as cell-based. The settings on record: EV 60 nM preincubated 30 min, P < 0.0001. As to the method:
as §2

Data set [6] deals with T24 cells. Nature of the data set: [^68Ga]AJ647 binding after EV preincubation, T24 cells. It counts as cell-based. The settings on record: T24 (Nectin-4-negative); EV 60 nM preincubated 30 min. On the procedure: as §2

For the compound `CSCC[C@@H]1NC(=O)[C@@H]2CSCCC(=O)N3CN(CN(C3)C(=O)CCSC[C@H](NC(=O)CCOCCOCCOCCOCCOCCOCCOCCOCCOCCOCCOCCOCCNC(=O)CN3CCN(CC(=O)O)CCN(CC(=O)O)CC3)C(=O)N3CCC[C@H]3C(=O)N[C@@H](Cc3cccc4ccccc34)C(=O)N[C@@H](CC(=O)O)C(=O)N2)C(=O)CCSC[C@@H](C(N)=O)NC(=O)[C@H](Cc2c[nH]c3ccccc23)NC(=O)[C@@H]2C[C@@H](O)CN2C(=O)[C@@H]2CCCN2C(=O)[C@H]([C@@H](C)O)NC(=O)[C@H](CO)NC(=O)[C@H](Cc2c[nH]c3ccccc23)NC(=O)[C@@H](CC(=O)O)NC(=O)[C@H](CCCCNC(=N)N)NC1=O` [[^68Ga]AJ647, metal not drawn], the “[^68Ga]AJ647 uptake” value in the data set on T24 cells [1] was 0.2 ± 0.11 %IA; in the data set on HT1376 cells [2], 6.5 ± 0.52 %IA; with SCaBER cells [3], 1.6 ± 0.13 %IA. In addition, at mouse Nectin-4, the koff was 0.0101 ± 0.00295 s⁻¹. Besides, the logD in “physchem” was -2.06 ± 0.17.
For the compound enfortumab vedotin [EV], the entries for the “effect on [^68Ga]AJ647 binding” value in the data set on SCaBER cells [4], with HT1376 cells [5] and in the data set on T24 cells [6] were “significantly reduced [^68Ga]AJ647 binding”, “significantly reduced [^68Ga]AJ647 binding” and “but not in Nectin-4–negative T24 cells”, respectively.

What is called koff is a measure of how fast the partners let go of each other. The logD is lipophilicity at a set pH, counting ionised and neutral species. A higher logD goes with a more lipophilic compound.
